Here are results for 4 compounds from patent US20160367659A1, “VIRAL PEPTIDES” (EQUIGERMINAL SA, priority 2013, published 2016).

Where a SMILES comes first, the peptide text is derived from it. [ ]: non-standard residue; d: D form. The star is where a group is joined. Sta = CC(C)C[C@H](N)[C@@H](O)CC(=O)O; Isovaleryl = CC(C)CC(=O)*

Assay [1] relates to protease activity of NEV fractions. The experiment in a line: In vitro protease cleavage activity of NEV viral protein fractions (fluorescence assay). The assay is classed as biochemical. The note with it: inhibitor 10 μM; Phe-Phe substrate pH 3 and 4, HIV substrate 1 pH 5; fractions 12, 15 and 16. On the procedure:
To assess for in vitro proteolytic cleavage activity, cell infections were performed in serum free media conditions. Day 5-7 p.i. viral particles were concentrated and extensively washed with HBSS in Vivaspin 100 kDa (Sartorius) columns. Concentrated viral particles were lysed in 0.1% SDS and submitted to analytical size-exclusion chromatography on a Superdex 200 5/150 GL (GE Healthcare Life Sciences) column connected to a Prominence HPLC system (Shimadzu Corporation, Tokyo, Japan). The column was equilibrated in 20 mM phosphate buffer pH 7.5 containing 150 mM NaCl.
The protease activity was determined by fluorescence assays in 96-well plates in a Gemini EM Fluorescence Microplate Reader, using the HIV Protease Substrate 1 Arg-Glu(EDANS)-Ser-Gln-Asn-Tyr-Pro-Ile-Val-Gln-Lys(DABCYL)-Arg (Sigma Aldrich) or the Phe-Phe substrate. For determination of the pH profile, viral particles were assayed for activity at 37° C. in buffers ranging between pH 3 and 6 (50 mM sodium acetate pH 3.0, 4.0, 5.0, and 6.0; 50 mM Tris-HCl […]) containing 100 mM NaCl. To test the specificity of enzymatic cleavage, Indinavir (Sigma Aldrich), a specific inhibitors of HIV protease, or pepstatin were used. The protease was pre-incubated in the presence of the inhibitor. […] The rate of substrate hydrolysis was monitored for 3 hours by the increase of intensity with excitation/emission wavelengths of 328/393 nm.

The next assay relates to mab#4G6E4. Description: ELISA dose response of mab#4G6E4 on peptide-coated wells. The assay is classed as binding, Mouse. On the procedure:
For that, serial dilutions of peptides in duplicates (1:1.3 or 1:1.4 in 0.05M carbonate buffer pH=9.3) ranging between 5 to 500 ng/mL were covalently linked to 96 microwell Poylsorp amino plates (Nunc, Thermofisher) for two hours at room temperature. To remove unbound peptide, plates were washed three times with PBS-Tween20 (0.005%) in an automated Wellwasher apparatus (Thermoscientific). After washing, plates were blocked by adding 300 microliters/well of Superblock T20 in PBS (Thermoscientific, Pierce). Superblock T20 was immediately removed and plates inverted till drying out. After blocked and dried plates were ready for c-ELISA or to be stored at 4-8° C. for further testing. […]
A rapid (2 hours) c-ELISA procedure was performed as follows: 70 ng/mL of mab#4G6E4 alone (50 microliters) diluted in dilution buffer was added to peptide-coated wells and incubated for 1 hour at 37° C. After 1 hour of incubation plates were extensively washed with 300 microliters of PBS-Tween20 (0.05%) for three times. The plate was after that incubated with a secondary goat anti-mouse IgG-HRP (Sigma Aldrich) at 1:2500 dilution and incubated for 30 minutes at 37° C. Plates were washed again four times with 300 microliters of PBS-Tween20 (0.05%) and signal developed by adding 50 microliters of fresh TMB reagent (Sigma Aldrich) for 15 minutes at room temperature. After colour development the reaction was stopped by adding 50 microliters of 1N H2SO4 (Sigma Aldrich). Determination of absorbance was obtained by reading plates at 450 nm in a Multiskan Go ELISA reader (Thermoscientific).
Dose responses curves were analysed by GraphPad Prism 6.0 software by using the four parameter function log(agonist) vs response with a variable slope. […] The Hill slope was very high for both peptides 7.2 for SEQ ID NO: 159 and 6.6 for SEQ ID NO: 20. The results are indicating high affinity between the mab and the peptide sequences (FIG. 6A1).
Furthermore dose response curves were optimized in order to decrease the Hill Slope and turn the assay more sensitive. […]
Background: In an ELISA, binding on a coated surface is turned into a signal by an enzyme label.

Where [2] appears, read: 70 ng/mL mab#4G6E4 diluted in 3% BSA, peptide 5 to 500 ng/mL, four parameter fit.

Regarding `CC(C)(C)NC(=O)[C@@H]1CN(Cc2cccnc2)CCN1C[C@@H](O)C[C@@H](Cc1ccccc1)C(=O)N[C@H]1c2ccccc2C[C@H]1O` [Indinavir], in assay [1], the “inhibition of the protease activity of NEV fractions” value is reported as “able to inhibit”.

In the case of `CC(C)CC(=O)N[C@H](C(=O)N[C@H](C(=O)N[C@@H](CC(C)C)[C@@H](O)CC(=O)N[C@@H](C)C(=O)N[C@@H](CC(C)C)[C@@H](O)CC(=O)O)C(C)C)C(C)C` [pepstatin] (Isovaleryl-VV[Sta]A[Sta]-OH), the “inhibition of the protease activity of NEV fractions” value in assay [1] is reported as “able to inhibit”.

One may read the EC50 as the concentration needed to bring the measured effect to its halfway point. For “EALDKIEEIQNKNKQKAAAQEQNPPPSVSLRSLFG [SEQ ID NO: 159]”, the EC50 in the assay on mab#4G6E4 (setting [2]) was 0.1635 µg/mL; in the assay with mab#4G6E4 (mab#4G6E4 (70 ng/mL) in 0.025% casein blocking instead of 3% BSA), 0.059 µg/mL.

QEQNPPPSVSLRSLFGNDPL [SEQ ID NO: 20]: in the assay with mab#4G6E4 (setting [2]), the EC50 worked out at 0.1937 µg/mL.
